# Assay results from the NIST ThermoML archive (doi:10.1016/j.tca.2018.08.005).
# Numbers after ± are expanded uncertainties.
# What was measured:
# [1] = Molar enthalpy of transition or fusion; details: Crystal; DSC
# [2] = Crystal; DTA
compound,measurement,setting,value
O.O.O.O.O.O.O.O.O.O.O=S(=O)([O-])[O-].[Na+].[Na+] [sodium sulfate decahydrate],Molar enthalpy of transition or fusion,[1],18 ± 1.84 kcal/mol
same,Normal melting temperature,[2],35.00 ± 5 °C
